Laboratory results published in ChEMBL document CHEMBL1201862, “PubChem BioAssay data set” (2004).
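Step 1: Grow cells in 96-well plates. Step 2: Expose to compound for 48 hours at 5 concentrations. Step 3: Interpolate endpoints linearly; if unreached, use highest concentration. GI50: concentration for 50% inhibition of growth.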 Active and inactive are the calls of the source. Cut-off read from the data, not from the text of the source: active = GI50 up to about 1.1 µM and inactive = higher.

Experiments:
Assay in all cases: growth of human tumour cells (NCI), 48 h
Malme-3M = tested on: Malme-3M
HOP-62 = tested on: HOP-62
SF-539 = tested on: SF-539
RPMI-8226 = tested on: RPMI-8226
TK-10 = tested on: TK-10
MDA-MB-231 = tested on: MDA-MB-231
NCI-H522 = tested on: NCI-H522
KM12 = tested on: KM12
SK-MEL-28 = tested on: SK-MEL-28
LOX IMVI = tested on: LOX IMVI
OVCAR-8 = tested on: OVCAR-8
RXF 393 = tested on: RXF 393
SK-MEL-5 = tested on: SK-MEL-5
EKVX = tested on: EKVX
DU-145 = tested on: DU-145
COLO 205 = tested on: COLO 205
SNB-19 = tested on: SNB-19
UACC-257 = tested on: UACC-257
U-251 = tested on: U-251
MOLT-4 = tested on: MOLT-4
A549 = tested on: A549
UO-31 = tested on: UO-31
HCT-15 = tested on: HCT-15
OVCAR-3 = tested on: OVCAR-3
IGROV-1 = tested on: IGROV-1
NCI-H23 = tested on: NCI-H23
SF-295 = tested on: SF-295
OVCAR-5 = tested on: OVCAR-5
CAKI-1 = tested on: CAKI-1
CCRF-CEM = tested on: CCRF-CEM
NCI/ADR-RES = tested on: NCI/ADR-RES
HCC 2998 = tested on: HCC 2998
HCT-116 = tested on: HCT-116
MCF7 = tested on: MCF7
786-0 = tested on: 786-0
OVCAR-4 = tested on: OVCAR-4
NCI-H226 = tested on: NCI-H226
SR = tested on: SR
HL-60 = tested on: HL-60
BT-549 = tested on: BT-549
Hs-578T = tested on: Hs-578T
PC-3 = tested on: PC-3
A498 = tested on: A498
MDA-MB-435 = tested on: MDA-MB-435
HOP-92 = tested on: HOP-92
SNB-75 = tested on: SNB-75
SN12C = tested on: SN12C
NCI-H460 = tested on: NCI-H460
K562 = tested on: K562
MDA-N = tested on: MDA-N
ACHN = tested on: ACHN
SF-268 = tested on: SF-268
HT-29 = tested on: HT-29
SW-620 = tested on: SW-620
UACC-62 = tested on: UACC-62
SK-MEL-2 = tested on: SK-MEL-2
M14 = tested on: M14

O=C(NCc1ccccc1)c1c(O)nc2ccccc2c1O
GI50 (Malme-3M): > 100 µM (inactive)
GI50 (HOP-62): > 100 µM (inactive)
GI50 (SF-539): > 100 µM (inactive)
GI50 (RPMI-8226): > 100 µM (inactive)
GI50 (TK-10): > 100 µM (inactive)
GI50 (MDA-MB-231): > 100 µM (inactive)
GI50 (NCI-H522): > 100 µM (inactive)
GI50 (KM12): > 100 µM (inactive)
GI50 (SK-MEL-28): > 100 µM (inactive)
GI50 (LOX IMVI): > 100 µM (inactive)
GI50 (OVCAR-8): > 100 µM (inactive)
GI50 (RXF 393): > 100 µM (inactive)
GI50 (SK-MEL-5): > 100 µM (inactive)
GI50 (EKVX): > 100 µM (inactive)
GI50 (DU-145): > 100 µM (inactive)
GI50 (COLO 205): > 100 µM (inactive)
GI50 (SNB-19): > 100 µM (inactive)
GI50 (UACC-257): > 100 µM (inactive)
GI50 (U-251): > 100 µM (inactive)
GI50 (MOLT-4): > 100 µM (inactive)
GI50 (A549): > 100 µM (inactive)
GI50 (UO-31): > 100 µM (inactive)
GI50 (HCT-15): > 100 µM
GI50 (OVCAR-3): > 100 µM (inactive)
GI50 (IGROV-1): > 100 µM (inactive)
GI50 (NCI-H23): > 100 µM (inactive)
GI50 (SF-295): > 100 µM (inactive)
GI50 (OVCAR-5): > 100 µM (inactive)
GI50 (CAKI-1): > 100 µM (inactive)
GI50 (CCRF-CEM): > 100 µM (inactive)
GI50 (NCI/ADR-RES): > 100 µM (inactive)
GI50 (HCC 2998): > 100 µM (inactive)
GI50 (HCT-116): > 100 µM (inactive)
GI50 (MCF7): > 100 µM (inactive)
GI50 (786-0): > 100 µM (inactive)
GI50 (OVCAR-4): > 100 µM (inactive)
GI50 (NCI-H226): > 100 µM (inactive)
GI50 (SR): > 100 µM (inactive)
GI50 (HL-60): > 100 µM (inactive)
GI50 (BT-549): > 100 µM (inactive)
GI50 (Hs-578T): 40.7 µM (inactive)
GI50 (PC-3): > 100 µM (inactive)
GI50 (A498): > 100 µM (inactive)
GI50 (MDA-MB-435): > 100 µM (inactive)
GI50 (HOP-92): > 100 µM (inactive)
GI50 (SNB-75): > 100 µM (inactive)
GI50 (SN12C): > 100 µM (inactive)
GI50 (NCI-H460): > 100 µM (inactive)
GI50 (K562): > 100 µM (inactive)
GI50 (MDA-N): > 100 µM (inactive)
GI50 (ACHN): > 100 µM (inactive)
GI50 (SF-268): > 100 µM (inactive)
GI50 (HT-29): > 100 µM (inactive)
GI50 (SW-620): > 100 µM (inactive)

Cc1ccc(-c2c(C#N)c(N)[nH]c(=S)c2C#N)cc1
GI50 (Malme-3M): 26.4 µM (inactive)
GI50 (HOP-62): 55 µM (inactive)
GI50 (SF-539): > 100 µM (inactive)
GI50 (RPMI-8226): 17.7 µM (inactive)
GI50 (TK-10): 73.6 µM (inactive)
GI50 (MDA-MB-231): 34.8 µM (inactive)
GI50 (NCI-H522): 19.4 µM (inactive)
GI50 (KM12): 40.8 µM (inactive)
GI50 (SK-MEL-28): 26.2 µM (inactive)
GI50 (LOX IMVI): 42.2 µM (inactive)
GI50 (OVCAR-8): 46.3 µM (inactive)
GI50 (RXF 393): 18.7 µM (inactive)
GI50 (UACC-62): 35.4 µM (inactive)
GI50 (SK-MEL-5): 23.4 µM (inactive)
GI50 (EKVX): 13.4 µM (inactive)
GI50 (DU-145): 50.8 µM (inactive)
GI50 (COLO 205): 24 µM (inactive)
GI50 (SNB-19): 77.1 µM (inactive)
GI50 (UACC-257): 34.5 µM (inactive)
GI50 (U-251): 49.1 µM (inactive)
GI50 (MOLT-4): 16.6 µM (inactive)
GI50 (A549): 58.5 µM (inactive)
GI50 (UO-31): 40.3 µM (inactive)
GI50 (HCT-15): 38.7 µM
GI50 (OVCAR-3): 35.2 µM (inactive)
GI50 (IGROV-1): 43.3 µM (inactive)
GI50 (NCI-H23): 39.7 µM (inactive)
GI50 (SK-MEL-2): 25.2 µM (inactive)
GI50 (SF-295): 32.8 µM (inactive)
GI50 (OVCAR-5): > 100 µM (inactive)
GI50 (CAKI-1): 49.8 µM (inactive)
GI50 (NCI/ADR-RES): 31.7 µM (inactive)
GI50 (HCC 2998): 26.7 µM (inactive)
GI50 (HCT-116): 32.4 µM (inactive)
GI50 (MCF7): 32 µM (inactive)
GI50 (786-0): 26.1 µM (inactive)
GI50 (OVCAR-4): 54.7 µM (inactive)
GI50 (NCI-H226): 23.9 µM (inactive)
GI50 (SR): 22.2 µM (inactive)
GI50 (M14): 43.6 µM (inactive)
GI50 (HL-60): 17.3 µM (inactive)
GI50 (BT-549): 34.1 µM (inactive)
GI50 (Hs-578T): 18.5 µM (inactive)
GI50 (PC-3): 33 µM (inactive)
GI50 (A498): 35.2 µM (inactive)
GI50 (MDA-MB-435): 23.3 µM (inactive)
GI50 (HOP-92): 31.4 µM (inactive)
GI50 (SN12C): 22.3 µM (inactive)
GI50 (NCI-H460): 47.6 µM (inactive)
GI50 (K562): 21.1 µM (inactive)
GI50 (MDA-N): 18.5 µM (inactive)
GI50 (ACHN): 79.3 µM (inactive)
GI50 (SF-268): 31.9 µM (inactive)
GI50 (HT-29): 48.2 µM (inactive)
GI50 (SW-620): 13.6 µM (inactive)
